According to publication PMC8196580, “Identification of Kaurane-Type Diterpenes as Inhibitors of Leishmania Pteridine Reductase I” (Molecules, 2021):
Like-named read-outs stand apart in the source and are kept apart here.

How the values were obtained:
L. major [1] = assay: ChEMBL dataset of pIC50 values against L. major used for the RF model (Table S1); format: cell-based, Leishmania major; also: call rule not given here
L. major [2] = system: L. major; design: method as in ChEMBL; conditions: ref ChEMBL, cited from earlier work
[3] = Active/Inactive class assigned to the ChEMBL pIC50 value for Random forest model construction, ref ChEMBL
[4] = ChemBL structures with pIC50 values used for Random forest model construction, L. major
[5] = Active/Inactive class assigned to ChemBL structures for Random forest model construction (Table S1)
[6] = ChemBL structures with pIC50 values used for Random forest model construction (Table S1)

CC(C)(C)C(=O)Oc1ccc(-c2c(-c3ccccc3)nc3ccccn23)cc1 [CHEMBL2151861]
Outcome (L. major [1]; [3]): Active
pIC50 Value (L. major [2]; [4]): 5.15

CC(=O)N1CCN(c2nnc(-c3ccc([N+](=O)[O-])s3)s2)CC1 [CHEMBL193546]
Outcome (L. major [1]; [3]): Inactive
pIC50 Value (L. major [2]; [4]): 4.31

C=CCCC/C=C\C/C=C\CCCCCCCc1cc(O)cc(O)c1 [CHEMBL496449]
Outcome (L. major [1]; [3]): Inactive
pIC50 Value (L. major [2]; [4]): 4.98

COc1ccc(-c2ccc(C)cc2)c2c1C(C)=N[C@H](C)C2 [CHEMBL1278083]
Outcome (L. major [1]; [3]): Inactive
pIC50 Value (L. major [2]; [4]): 4.08

Cl.N=C(c1ccc(N2CCN(c3nnc(-c4ccc([N+](=O)[O-])o4)s3)CC2)cc1)N1CCOCC1 [CHEMBL1783209]
Outcome (L. major [1]; [3]): Inactive
pIC50 Value (L. major [2]; [4]): 4.03

Cc1cccc2cc(C3CC(c4ccc(Br)s4)=NN3)c(Cl)nc12 (stereo not drawn) [CHEMBL2236133]
Outcome (L. major [1]; [5]): Active
pIC50 Value (L. major [2]; [6]): 5.64

CCCCCCNc1ccc(Nc2c3ccccc3nc3ccccc23)cc1OC [CHEMBL88507]
Outcome (L. major [1]; [5]): Active
pIC50 Value (L. major [2]; [6]): 6.40

Clc1cc(Cl)cc(-c2nc3ccccn3c2-c2ccccc2)c1 [CHEMBL2151989]
Outcome (L. major [1]; [3]): Inactive
pIC50 Value (L. major [2]; [4]): 4.41

CCCc1ccc(-[n+]2c(C)cc3cc(OC)cc(OC)c3c2C)cc1.F[B-](F)(F)F [CHEMBL517690]
Outcome (L. major [1]; [5]): Active
pIC50 Value (L. major [2]; [6]): 5.79

Cc1cccc2cc(C3CC(c4ccc(Cl)s4)=NN3)c(Cl)nc12 (stereo not drawn) [CHEMBL2236130]
Outcome (L. major [1]; [5]): Active
pIC50 Value (L. major [2]; [6]): 5.68

CCCCCCCCCC(=O)OCCc1ccc(O)cc1 [CHEMBL3960630]
Outcome (L. major [1]; [3]): Inactive
pIC50 Value (L. major [2]; [4]): 4.19

CCCCCCN(C)c1ccc(Nc2c3ccc(Cl)cc3nc3ccc(OC)cc23)cc1 [CHEMBL315133]
Outcome (L. major [1]; [5]): Active
pIC50 Value (L. major [2]; [6]): 5.74

COc1cc(OC)c2c(C)[n+](-c3cccc4c3C(=O)c3ccccc3C4=O)c(C)cc2c1.F[B-](F)(F)F [CHEMBL474599]
Outcome (L. major [1]; [3]): Inactive
pIC50 Value (L. major [2]; [4]): 4.00

CN(C)Cc1c(O)ccc2c(=O)c(-c3cnn(-c4ccccc4)c3)coc12 [CHEMBL1256931]
Outcome (L. major [1]; [3]): Inactive
pIC50 Value (L. major [2]; [4]): 4.13

Cc1ccc(N2C(=O)C(c3ccc(C)cc3)(c3ccc(C)cc3)C2c2cn(C)c3ccccc23)cc1 (stereo not drawn) [CHEMBL2071565]
Outcome (L. major [1]; [5]): Active
pIC50 Value (L. major [2]; [6]): 5.89

CCCC/C=C/C=C/c1nc2cccc(OC)c2n2cccc12 [CHEMBL3260217]
Outcome (L. major [1]; [3]): Active
pIC50 Value (L. major [2]; [4]): 5.24

CCN(CC)c1ccc(Nc2c3ccccc3nc3ccccc23)cc1 [CHEMBL315530]
Outcome (L. major [1]; [5]): Active
pIC50 Value (L. major [2]; [6]): 6.40

C=C[C@H](/C=C\c1ccc(O)cc1)c1ccc(O)cc1 [CHEMBL451713]
Outcome (L. major [1]; [3]): Inactive
pIC50 Value (L. major [2]; [4]): 4.92

c1ccc(-c2nc3ccccn3c2-c2cncnc2)cc1 [CHEMBL2151871]
Outcome (L. major [1]; [3]): Inactive
pIC50 Value (L. major [2]; [4]): 4.00

Clc1cccc(-c2nc3ccccn3c2-c2ccccc2)c1 [CHEMBL2151878]
Outcome (L. major [1]; [5]): Active
pIC50 Value (L. major [2]; [6]): 5.36

O=[N+]([O-])c1cn2c(n1)OC[C@H](Oc1ccc(OC(F)(F)F)cc1)C2 [CHEMBL4078293]
Outcome (L. major [1]; [5]): Active
pIC50 Value (L. major [2]; [6]): 5.63

CC(Cl)C(=O)N1c2ccccc2Oc2ccccc21 (stereo not drawn) [CHEMBL3759769]
Outcome (L. major [1]; [3]): Inactive
pIC50 Value (L. major [2]; [4]): 4.00

Cc1ccc(C2(c3ccc(C)cc3)C(=O)N(c3ccccc3)C2c2cn(C)c3ccccc23)cc1 (stereo not drawn) [CHEMBL2071564]
Outcome (L. major [1]; [5]): Active
pIC50 Value (L. major [2]; [6]): 5.91

COc1ccccc1-c1nnc(-c2ccc(C(=O)N/N=C/c3cccc(O)c3O)cc2)o1 [CHEMBL4065149]
Outcome (L. major [1]; [5]): Active
pIC50 Value (L. major [2]; [6]): 5.85

NP(=O)(OCc1cccc([N+](=O)[O-])c1)N(CCCl)CCCl (stereo not drawn) [CHEMBL1256964]
Outcome (L. major [1]; [3]): Inactive
pIC50 Value (L. major [2]; [4]): 4.52

O=[N+]([O-])c1ccc2nc(-c3cccnc3)[nH]c2c1 [CHEMBL159327]
Outcome (L. major [1]; [5]): Active
pIC50 Value (L. major [2]; [6]): 5.48

O=[N+]([O-])c1ccc2nc(-c3ccccn3)[nH]c2c1 [CHEMBL380979]
Outcome (L. major [1]; [5]): Active
pIC50 Value (L. major [2]; [6]): 5.52

O=C(/C=C/c1ccc(-n2ccnc2)cc1)c1cccc(O)c1 [CHEMBL571179]
Outcome (L. major [1]; [5]): Active
pIC50 Value (L. major [2]; [6]): 5.48

Clc1ccccc1-c1nc2ccccc2[nH]1 [CHEMBL473162]
Outcome (L. major [1]; [5]): Active
pIC50 Value (L. major [2]; [6]): 5.47

COc1cc(NS(C)(=O)=O)ccc1Nc1c2ccccc2nc2ccccc12 [CHEMBL43]
Outcome (L. major [1]; [5]): Active
pIC50 Value (L. major [2]; [6]): 5.82

O=[N+]([O-])c1ccc2nc(-c3ccc[nH]3)[nH]c2c1 [CHEMBL2297906]
Outcome (L. major [1]; [5]): Active
pIC50 Value (L. major [2]; [6]): 5.40

COC(=O)c1c(O)c(C#N)c2n(c1=O)CCc1cc(OC)c(OC)cc1-2 [CHEMBL1256930]
Outcome (L. major [1]; [3]): Inactive
pIC50 Value (L. major [2]; [4]): 4.28

C[C@@H]1CC[C@H]2[C@@H](C)C(=O)O[C@@H]3O[C@@]4(C)CC[C@@H]1[C@]32OO4 [CHEMBL269671]
Outcome (L. major [1]; [5]): Active
pIC50 Value (L. major [2]; [6]): 6.12

Fc1ccccc1-c1nc2ccccn2c1-c1ccccc1 [CHEMBL2151876]
Outcome (L. major [1]; [3]): Inactive
pIC50 Value (L. major [2]; [4]): 4.41

CCc1nnc(N2C(=O)C3C4C=CC(C4)C3C2=O)s1 (stereo not drawn) [CHEMBL1255760]
Outcome (L. major [1]; [3]): Inactive
pIC50 Value (L. major [2]; [4]): 4.00

O=[N+]([O-])c1ccc2ncnc(Nc3cccc(Br)c3)c2c1 [CHEMBL329161]
Outcome (L. major [1]; [3]): Active
pIC50 Value (L. major [2]; [4]): 5.04

COc1c2c(cc(O)c1-c1c(C)cc3cccc(OC)c3c1O)C[C@H](C)N=C2C [CHEMBL221884]
Outcome (L. major [1]; [3]): Inactive
pIC50 Value (L. major [2]; [4]): 4.48

C=C[C@@]1(C)CC2=C(C[C@H]1C(=C)C)C(O)C=CC2O (stereo partly drawn) [CHEMBL257133]
Outcome (L. major [1]; [3]): Inactive
pIC50 Value (L. major [2]; [4]): 4.74

CC(=O)C1=C(CNc2ccc(C(=O)/C=C/c3ccc(Cl)cc3)cc2)N(C)C(=O)NC1c1ccccc1 (stereo not drawn) [CHEMBL3785674]
Outcome (L. major [1]; [5]): Active
pIC50 Value (L. major [2]; [6]): 5.97

COc1cc2c(c(OC)c1)C(C)N(c1ccc(OC)c3c(OC)cc(C)cc13)[C@@H](C)C2 (stereo partly drawn) [CHEMBL479849]
Outcome (L. major [1]; [3]): Inactive
pIC50 Value (L. major [2]; [4]): 4.19

O=C(/C=C/c1ccc(-n2ccnc2)cc1)c1ccc(Cl)cc1Cl [CHEMBL570849]
Outcome (L. major [1]; [5]): Active
pIC50 Value (L. major [2]; [6]): 5.68

COc1ccc2c(c1)C=C(C(=O)/C=C/c1ccc(Cl)c(Cl)c1)CO2 [CHEMBL3329269]
Outcome (L. major [1]; [5]): Active
pIC50 Value (L. major [2]; [6]): 6.00

O=C(/C=C/c1ccc(-n2ccnc2)cc1)c1ccc(I)cc1 [CHEMBL570445]
Outcome (L. major [1]; [5]): Active
pIC50 Value (L. major [2]; [6]): 5.64

CN(C)c1nccn2c(-c3ccncc3)c(-c3ccccc3)nc12 [CHEMBL3634364]
Outcome (L. major [1]; [3]): Inactive
pIC50 Value (L. major [2]; [4]): 4.50

CN1CCN(c2nnc(-c3ccc([N+](=O)[O-])o3)s2)CC1 [CHEMBL372024]
Outcome (L. major [1]; [3]): Active
pIC50 Value (L. major [2]; [4]): 5.14

CC1=N[C@H](C)Cc2c(-c3ccc(C)cc3)ccc(O)c21 [CHEMBL1275822]
Outcome (L. major [1]; [3]): Inactive
pIC50 Value (L. major [2]; [4]): 4.07

O=C(/C=C/c1ccc(-n2ccnc2)cc1)c1c(F)cccc1F [CHEMBL570962]
Outcome (L. major [1]; [5]): Active
pIC50 Value (L. major [2]; [6]): 5.51

COc1cc(OC)c2c(C)[n+](-c3cccc(C)c3C)c(C)cc2c1.F[B-](F)(F)F [CHEMBL480823]
Outcome (L. major [1]; [3]): Inactive
pIC50 Value (L. major [2]; [4]): 4.94
